One may read the IC50 as the concentration needed to halve the response being measured.

Like-named read-outs stand apart in the source and are kept apart here. Some results are limits rather than exact numbers.

For 21 molecules, IC50 results are on record in patent US10519177B2, “Heterocyclic compounds and uses thereof” (Plexxikon Inc., priority 2013, dated 2019).

The subject of assay [1] is MV-4-11 cells. The experiment in a line: Oncology cell growth assay MV-4-11 (CellTiter Glo). Format: cell-based. The settings on record: Homo sapiens, MV4-11, 72 h, read-out: Cell activity (IC50 μM) MV-4-11 3d-Growth. The method, boiled down:
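MV-4-11 AML cells (MLL-AF4), 3000 per well, exposed to 8-point 1:3 compound titration from 10 μM top concentration (0.2% DMSO) for 72 h. Viability by CellTiter Glo luminescence, normalized to DMSO controls; pIC50 from four-parameter curve fit.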

Assay [2] has as its target BRD4-BD12 (1-477) (Homo sapiens (Human), UniProt O60885). Put plainly: Alphascreen binding assay BRD4-BD12. As to conditions: BRD4(1 2) H4; read-out: Biochemical activity (IC50 μM) BRD4(1 2) H4. As to the method:
Binding of compounds of formula (I) with bromodomain 2, 3 4 was assessed using Alphascreen binding assay. The inhibition of the interaction between bromodomain and its acetylated target protein (Filippakopoulos P et al. 2012) was measured quantitatively using recombinant BRD proteins, an acetylated Histone 4 peptide and AlphaScreen™ technology. In absence of inhibition the BRD protein bound to AlphaScreen™ nickel chelate acceptor beads can interact with the acetylated Histone 4 peptide which is immobilized by the AlphaScreen™ Streptavidin coated beads. This interaction brings donor and acceptor beads in proximity. The close proximity allows the singlet oxygen produced by laser excitation of the donor beads to reach the acceptor beads and generate a luminescence signal.
Recombinant human bromodomains containing the N-terminal bromodomain (BRD2-BD1 (71-194), BRD3-BD1 (24-144) and BRD4-BD1 (44-164)) or dual bromodomains (BRD4-BD12 (1-477), BRD4-BD12 (1-472)) were prepared and purified as described in protein expression and purification session. The peptide is human Histone H41-21K5AcK8AcK12AcK16Ac-Biotin (Anaspec CA, USA).
Protocol for BRD2, BRD3 and BRD4 assay: All components are prepared in buffer composed of 50 mM HEPES pH 7.5, 100 mM NaCl, 0.01% bovine serum albumin (“BSA”), 0.01% Triton X-100, 2 mM dithiothreitol (“DTT”). 7 μL of Bromodomain protein and 7 μL of peptide are added to wells containing 1 μL of various concentrations of test compounds of formula (I) or DMSO vehicle in an Alphaplate (PerkinElmer GA, USA) and incubated for 1 hour at room temperature. 4 μL donor and acceptor bead mixture is then added with final concentrations of 7.5 μg/ml. 30 minutes after bead addition, Alpha signal is read on the Envision spectrometer (λEx 680 nm, λEm 520-620 nm). Final concentrations of bromodomain proteins and peptide are as shown below.
All data was normalized to the mean of 16 high and 16 low control wells on each plate. A four parameter curve fit of the following formula was then applied: Y=a+(b−a)/(1+(x/c)^d) Where ‘a’ is the minimum, ‘b’ is the maximum, ‘c’ is the pIC50 and ‘d’ is the Hill slope. Protein Expression and Purification
Recombinant human bromodomains containing the N-terminal bromodomain (BRD2-BD1 (71-194), BRD3-BD1 (24-144) and BRD4-BD1 (44-164)) or dual bromodomains (BRD4-BD12 (1-477), BRD4-BD12 (1-472)) were expressed in E. coli cells (in a modified pET vector) with an N-terminal six-His tag and purified using a combination of both IMAC (Ni-affinity) and size exclusion chromatography steps.
Recombinant BRD proteins were expressed using the E. coli strain BL21-CodonPlus (DE3) (Agilent Technologies CA, USA). Cells were grown in Terrific Broth (TB) media to an OD600 of 1.2 at 37° C. at which temperature was reduced to 25° C., protein was induced with 1.0 mM ispropyl-β-D-thiogalactopyranoside (“IPTG”) for 12-18 hours and harvested by centrifugation at 8000×g for 20 minutes. Cells were re-suspended in 0.1M K2PO4 pH 8.0, 250 mM NaCl, 10% Glycerol, 0.75% NP-40, 25 mM Imidazole, 5 mM beta-mercaptoethanol (“BME”) with 0.2 mg/ml Lysosyme, 2.0 mM phenylmethanesulfonyl fluoride (“PMSF”), 25 μg/ml DNAse I, incubated on ice for 30 minutes and lyzed with a cell disruptor (MicroFluidics MA, USA). The lysate was clarified by centrifugation at 20,000×g for 2 hours. The protein was captured with Ni-NTA resin (Life Technologies, USA). Contaminating proteins were washed off with 25 mM Tris-HCl pH 8.3, 250 mM NaCl, 12% Glycerol and 50 mM Imidazole. Following 3× wash steps, protein was eluted step wise using a 50 mM HEPES pH 7.5, 500 mM NaCl and 400 mM Imidazole. The protein was further purified using Gel Filtration column 26/600 Superdex 200 (GE Biosciences NJ, USA) in 50 mM HEPES pH 7.5, 250 mM NaCl. The protein was aliquoted and flash-frozen in liquid Nitrogen.

Take `COC(=O)c1ccc(-c2cn(Cc3cccc(C)n3)c3cc(-c4c(C)noc4C)cnc23)cc1` [P-0915, methyl 4-[6-(3,5-dimethylisoxazol-4-yl)-1-[(6-methyl-2-pyridyl)methyl]pyrrolo[3,2-b]pyridin-3-yl]benzoate]: the IC50 in assay [1] (MV-4-11, 3d growth) was below 1 µM; in assay [2], below 1 µM.

Turning to `Cc1cccc(Cn2cc(-c3ccc(C(=O)O)cc3)c3ncc(-c4c(C)noc4C)cc32)n1` [P-0916, 4-[6-(3,5-dimethylisoxazol-4-yl)-1-[(6-methyl-2-pyridyl)methyl]pyrrolo[3,2-b]pyridin-3-yl]benzoic acid], the IC50 in assay [1] (MV-4-11, 3d growth) was below 1 µM; in assay [2], below 1 µM.

In the case of `Cc1noc(C)c1-c1cnc2c(-c3ccc(C(=O)O)cc3)cn(Cc3ccc(F)cn3)c2c1` [P-0917, 4-[6-(3,5-dimethylisoxazol-4-yl)-1-[(5-fluoro-2-pyridyl)methyl]pyrrolo[3,2-b]pyridin-3-yl]benzoic acid], the IC50 in assay [1] (MV-4-11, 3d growth) was below 1 µM; in assay [2], below 1 µM.

In the case of `COC(=O)c1ccc(-c2cn(Cc3ccc(F)cn3)c3cc(-c4c(C)noc4C)cnc23)cc1` [P-0918, methyl 4-[6-(3,5-dimethylisoxazol-4-yl)-1-[(5-fluoro-2-pyridyl)methyl]pyrrolo[3,2-b]pyridin-3-yl]benzoate], the IC50 in assay [1] (MV-4-11, 3d growth) is below 1 µM; in assay [2], below 1 µM.

Regarding `COC(=O)c1ccc(-c2cn(Cc3ccccc3)c3cc(-c4c(C)noc4C)cnc23)cc1` [P-0919, methyl 4-[1-benzyl-6-(3,5-dimethylisoxazol-4-yl)pyrrolo[3,2-b]pyridin-3-yl]benzoate], the 50% inhibitory concentration (IC50) in assay [1] (MV-4-11, 3d growth) was below 1 µM; in assay [2], below 1 µM.

For `Cc1cccc(Cn2cc(I)c3ncc(-c4c(C)noc4C)cc32)n1` [P-0920, 4-[3-iodo-1-[(6-methyl-2-pyridyl)methyl]pyrrolo[3,2-b]pyridin-6-yl]-3,5-dimethyl-isoxazole], the IC50 in assay [1] (MV-4-11, 3d growth) is below 1 µM; in assay [2], below 1 µM.

Regarding `COC(=O)c1ccc(-c2cn(Cc3ccccc3C#N)c3cc(-c4c(C)noc4C)cnc23)cc1` [P-0922, methyl 4-[1-[(2-cyanophenyl)methyl]-6-(3,5-dimethylisoxazol-4-yl)pyrrolo[3,2-b]pyridin-3-yl]benzoate], the 50% inhibitory concentration (IC50) was below 1 µM in assay [1] (MV-4-11, 3d growth) and below 1 µM in assay [2].

`Cc1noc(C)c1-c1cnc2c(-c3ccc(C(=O)O)cc3)cn(Cc3ccccc3C#N)c2c1` [P-0923, 4-[1-[(2-cyanophenyl)methyl]-6-(3,5-dimethylisoxazol-4-yl)pyrrolo[3,2-b]pyridin-3-yl]benzoic acid]: the IC50 in assay [1] (MV-4-11, 3d growth) was below 1 µM; in assay [2], below 1 µM.

As to `Cc1noc(C)c1-c1cnc2c(I)cn(Cc3ccccc3F)c2c1` [P-0924, 4-[1-[(2-fluorophenyl)methyl]-3-iodo-pyrrolo[3,2-b]pyridin-6-yl]-3,5-dimethyl-isoxazole], the IC50 in assay [1] (MV-4-11, 3d growth) is below 1 µM; in assay [2], below 1 µM.

As to `COC(=O)c1ccc(-c2cn(Cc3ccccc3F)c3cc(-c4c(C)noc4C)cnc23)cc1` [P-0925, methyl 4-[6-(3,5-dimethylisoxazol-4-yl)-1-[(2-fluorophenyl)methyl]pyrrolo[3,2-b]pyridin-3-yl]benzoate], the IC50 in assay [1] (MV-4-11, 3d growth) is below 1 µM; in assay [2], below 1 µM.

Take `Cc1noc(C)c1-c1cnc2c(-c3ccc(C(=O)O)cc3)cn(Cc3ccccc3F)c2c1` [P-0926, 4-[6-(3,5-dimethylisoxazol-4-yl)-1-[(2-fluorophenyl)methyl]pyrrolo[3,2-b]pyridin-3-yl]benzoic acid]: the half-maximal inhibitory concentration (IC50) in assay [1] (MV-4-11, 3d growth) is below 1 µM; in assay [2], below 1 µM.

Regarding `CCOP(=O)(OCC)c1ccc(-c2cn(C(C)c3ccccc3)c3cc(-c4c(C)noc4C)cnc23)cc1` (stereo not drawn) [P-0927, 4-[3-(4-diethoxyphosphorylphenyl)-1-(1-phenylethyl)pyrrolo[3,2-b]pyridin-6-yl]-3,5-dimethyl-isoxazole], the IC50 in assay [1] and in assay [2] was below 1 µM in each case.

For `Cc1noc(C)c1-c1cnc2c(-c3ccc(P(=O)(O)O)cc3)cn(C(C)c3ccccc3)c2c1` (stereo not drawn) [P-0928, [4-[6-(3,5-dimethylisoxazol-4-yl)-1-(1-phenylethyl)pyrrolo[3,2-b]pyridin-3-yl]phenyl]phosphonic acid], the half-inhibitory concentration (IC50) is 1 to 10 µM in assay [1] (MV-4-11, 3d growth) and below 1 µM in assay [2].

As to `COc1cccc(Cn2cc(I)c3ncc(-c4c(C)noc4C)cc32)n1` [P-0929, 4-[3-iodo-1-[(6-methoxy-2-pyridyl)methyl]pyrrolo[3,2-b]pyridin-6-yl]-3,5-dimethyl-isoxazole], the IC50 in assay [1] (MV-4-11, 3d growth) is below 1 µM; in assay [2] it was below 1 µM.

For the molecule `COC(=O)c1ccc(-c2cn(Cc3cccc(OC)n3)c3cc(-c4c(C)noc4C)cnc23)cc1` [P-0930, methyl 4-[6-(3,5-dimethylisoxazol-4-yl)-1-[(6-methoxy-2-pyridyl)methyl]pyrrolo[3,2-b]pyridin-3-yl]benzoate], the IC50 in assay [1] (MV-4-11, 3d growth) is 1 to 10 µM; in assay [2] it was below 1 µM.

For `COc1cccc(Cn2cc(-c3ccc(C(=O)O)cc3)c3ncc(-c4c(C)noc4C)cc32)n1` [P-0931, 4-[6-(3,5-dimethylisoxazol-4-yl)-1-[(6-methoxy-2-pyridyl)methyl]pyrrolo[3,2-b]pyridin-3-yl]benzoic acid], the IC50 in assay [1] (MV-4-11, 3d growth) is below 1 µM; in assay [2] it was below 1 µM.

Take `COc1ccccc1Cn1cc(I)c2ncc(-c3c(C)noc3C)cc21` [P-0932, 4-[3-iodo-1-[(2-methoxyphenyl)methyl]pyrrolo[3,2-b]pyridin-6-yl]-3,5-dimethyl-isoxazole]: the IC50 in assay [1] (MV-4-11, 3d growth) was below 1 µM; in assay [2], below 1 µM.

In the case of `COC(=O)c1ccc(-c2cn(Cc3ccccc3OC)c3cc(-c4c(C)noc4C)cnc23)cc1` [P-0933, methyl 4-[6-(3,5-dimethylisoxazol-4-yl)-1-[(2-methoxyphenyl)methyl]pyrrolo[3,2-b]pyridin-3-yl]benzoate], the IC50 in assay [1] (MV-4-11, 3d growth) was 1 to 10 µM; in assay [2] it was below 1 µM.

Turning to `COc1ccccc1Cn1cc(-c2ccc(C(=O)O)cc2)c2ncc(-c3c(C)noc3C)cc21` [P-0934, 4-[6-(3,5-dimethylisoxazol-4-yl)-1-[(2-methoxyphenyl)methyl]pyrrolo[3,2-b]pyridin-3-yl]benzoic acid], the half-maximal inhibitory concentration (IC50) is below 1 µM in assay [1] (MV-4-11, 3d growth) and below 1 µM in assay [2].

Regarding `Cc1noc(C)c1-c1cnc2c(I)cn(Cc3ccncc3)c2c1` [P-0935, 4-[3-iodo-1-(4-pyridylmethyl)pyrrolo[3,2-b]pyridin-6-yl]-3,5-dimethyl-isoxazole], the half-inhibitory concentration (IC50) in assay [1] (MV-4-11, 3d growth) is below 1 µM; in assay [2] it was below 1 µM.

Consider `COC(=O)c1ccc(-c2cn(Cc3ccncc3)c3cc(-c4c(C)noc4C)cnc23)cc1` [P-0936, methyl 4-[6-(3,5-dimethylisoxazol-4-yl)-1-(4-pyridylmethyl)pyrrolo[3,2-b]pyridin-3-yl]benzoate], for which the IC50 is below 1 µM in assay [1] (MV-4-11, 3d growth) and below 1 µM in assay [2].
